Data on 101 compounds can be found in ChEMBL document CHEMBL3507680, “University of Dundee, Gates Library screen for HepG2 cell viability”.

The structures appear in SMILES notation.

This series is described as follows: Human HepG2 cell viability assay in 384 well format. In kind it is toxicity, cell-based. Also noted: dose 125 nL, time 70.5 hour; cytotoxicity at 70.5 h: concentration not given beside the values. Conditions: HepG2 cells, read-out: Inhibition.
For the compound `CN(CC(=O)Nc1cccc(F)c1)Cc1nc(N)nc(N(C)C)n1`, the cytotoxicity at 70.5 h is 1.01%.

On to `O=S(=O)(N1CCOCC1)N1CCc2sccc2C1`, for which the cytotoxicity at 70.5 h turned out to be 6.06%.

Turning to `CN(C)c1nc(N)nc(CSCCC(=O)Nc2cccc(Cl)c2)n1`, the cytotoxicity at 70.5 h was determined as 19.2%.

Take `CC(C)c1noc(CS(=O)(=O)Cc2nc(C(C)C)no2)n1`: the cytotoxicity at 70.5 h was -7.1%.

As to `O=S(=O)(c1ccccc1)N1CCN(Cc2ccc(F)cc2Br)CC1`, the cytotoxicity at 70.5 h was -8.77%.

Regarding `O=C(c1cc(Cl)c2c(c1)OCCCO2)N(CC1CCOC1)C1CC1` (stereo unspecified), the cytotoxicity at 70.5 h is -7.67%.

`CC(C)S(=O)(=O)CC(=O)N(Cc1ccsc1)c1ccccc1`: the cytotoxicity at 70.5 h is -7.19%.

For `Cn1cc(NC(=O)Cc2cccs2)c(=O)n(C)c1=O`, the cytotoxicity at 70.5 h is -9.77%.

With `N#Cc1nccnc1N1CCC(CSc2ccccc2)C1` (stereo unspecified), the cytotoxicity at 70.5 h was -9.74%.

As to `O=S(=O)(N1CCCC1)N1CCc2sccc2C1`, the cytotoxicity at 70.5 h is 0.675%.

Regarding `CCc1nc(C)ncc1C(=O)N1CCN(CC)c2ccccc21`, the cytotoxicity at 70.5 h was 8.71%.

Turning to `CCc1nc(C)ncc1C(=O)N1CC(=O)N(C)c2ccccc21`, the cytotoxicity at 70.5 h is -10.1%.

Take `COc1ncc(Cl)c(NCc2ccc(C(=O)N(C)C)cc2)n1`: the cytotoxicity at 70.5 h was 27.7%.

Consider `N#Cc1nccnc1N1CCC(OCCCc2ccccc2)C1` (stereo unspecified), for which the cytotoxicity at 70.5 h was -6.29%.

Regarding `CCc1nc(C)ncc1C(=O)N1CC(C)CN(C)c2ccccc21` (stereo unspecified), the cytotoxicity at 70.5 h is -7.55%.

As for `Cc1nc(C2CCCN2Cc2cc(Cl)c3c(c2)OCCO3)no1` (stereo unspecified), the cytotoxicity at 70.5 h was 16.9%.

As for `COC1CCCN(C(=O)NCCCF)C1` (stereo unspecified), the cytotoxicity at 70.5 h was -2.7%.

For `Cc1ccc(C2CN(Cc3cnc(-c4ccccn4)s3)CCO2)o1` (stereo unspecified), the cytotoxicity at 70.5 h was determined as 22.5%.

In the case of `N#CCCN(CCC#N)C(=O)CN(C1CC1)C1CCc2ccccc21` (stereo unspecified), the cytotoxicity at 70.5 h was -2.92%.

`CC(NC(=O)C1CCCC1)c1nc(-c2ccccc2)c[nH]1` (stereo unspecified): the cytotoxicity at 70.5 h amounted to 1.26%.

Regarding `CCOc1ccc(NC(=O)N2CCNC(=O)C2)c(C(F)(F)F)c1`, the cytotoxicity at 70.5 h was found to be 1.37%.

For `O=C(O)CSc1nc(-c2ccc3c(c2)CCC3)n[nH]1`, the cytotoxicity at 70.5 h worked out at 2.18%.

For the compound `COCCS(=O)(=O)NC(C)c1ccccc1Br` (stereo unspecified), the cytotoxicity at 70.5 h is -0.0652%.

Turning to `CC(C)(C)C(=O)NS(=O)(=O)c1ccc(F)cc1C(F)(F)F`, the cytotoxicity at 70.5 h was -3.41%.

`CSCc1cccc(NC(=O)N2CCC(N3CC=CC3)C2)c1` (stereo unspecified): the cytotoxicity at 70.5 h was determined as 35%.

Consider `CS(=O)(=O)CCSc1n[nH]c(-c2ccc3c(c2)CCC3)n1`, for which the cytotoxicity at 70.5 h stood at 3.91%.

With `Cc1cc(C(=O)Nc2cccn(Cc3ccc(F)cc3)c2=O)on1`, the cytotoxicity at 70.5 h is -3.03%.

As for `CC1CN(C(=O)c2ccc(=O)n(C)c2)c2ccccc2NC1=O` (stereo unspecified), the cytotoxicity at 70.5 h is -0.859%.

Regarding `CSCC(C)(O)CNc1ncccc1I` (stereo unspecified), the cytotoxicity at 70.5 h is 7.7%.

On to `CN(C)C(CNCc1nc(-c2ccsc2)no1)c1ccco1` (stereo unspecified), for which the cytotoxicity at 70.5 h is -16.8%.

Consider `Cc1cc(C(C)NCCN2CCC(N(C)C)CC2)c(C)s1` (stereo unspecified), for which the cytotoxicity at 70.5 h is 12.7%.

In the case of `CC(CNCC1(S(C)(=O)=O)CCOCC1)c1ccc(F)cc1` (stereo unspecified), the cytotoxicity at 70.5 h amounted to 9.05%.

As for `CN(CCS(=O)(=O)c1cc(Cl)ccc1Cl)CC(=O)Nc1ccc(F)cc1`, the cytotoxicity at 70.5 h was determined as 6.55%.

Regarding `Fc1cccc2ncnc(NCC3(N4CCOCC4)CCSC3)c12` (stereo unspecified), the cytotoxicity at 70.5 h amounted to 3.01%.

`CN(CC(N)=O)C(=O)c1cnc(-c2ccc(Cl)s2)s1`: the cytotoxicity at 70.5 h is -4.25%.

As to `CN1CC(C(=O)NCc2cccnc2OCc2ccccc2)CC1=O` (stereo unspecified), the cytotoxicity at 70.5 h was -4.14%.

On to `CN1CC(C(=O)NCc2ccc(OCc3cccnc3)cc2)CC1=O` (stereo unspecified), for which the cytotoxicity at 70.5 h came to 12.9%.

As for `Cc1nnc2n1CCN(CC(O)CN1CCC(C)CC1)C2` (stereo unspecified), the cytotoxicity at 70.5 h was -2.86%.

`CCc1ccc(C(=O)NC(C)c2ccc(S(C)(=O)=O)c(F)c2)o1` (stereo unspecified): the cytotoxicity at 70.5 h came to 13.1%.

Turning to `CCN(C)CC1CCN(c2ncc(Br)cn2)C1` (stereo unspecified), the cytotoxicity at 70.5 h was determined as 9.92%.

Regarding `O=C1COc2cccc(OCc3ccccn3)c2N1`, the cytotoxicity at 70.5 h is -0.596%.

Take `CN(CCS(=O)(=O)c1cc(Cl)ccc1Cl)CC(=O)Nc1cccc(F)c1`: the cytotoxicity at 70.5 h was -0.61%.

With `Cc1cc(NCCOCCS(C)(=O)=O)nc2ccccc12`, the cytotoxicity at 70.5 h turned out to be 1.59%.

On to `CC(C1CC1)N(CC(=O)NCC(F)(F)F)C1CC1` (stereo unspecified), for which the cytotoxicity at 70.5 h came to 13.2%.

For the compound `Cc1cccc(NCc2ncc(C(C)(C)C)o2)c1`, the cytotoxicity at 70.5 h turned out to be 12.6%.

As for `CC(=O)N1CCCN(C(=O)Cc2c(C)nc(C)[nH]c2=O)CC1`, the cytotoxicity at 70.5 h is -0.651%.

For `CCC(C)CNCC1(S(C)(=O)=O)CCOCC1` (stereo unspecified), the cytotoxicity at 70.5 h was -1.98%.

Turning to `CC(CN1CCOCC1)OC(=O)c1cccc2cn[nH]c12` (stereo unspecified), the cytotoxicity at 70.5 h turned out to be 12%.

For the compound `CC(NCCCN1CCCN(C)CC1)C(C)(C)C` (stereo unspecified), the cytotoxicity at 70.5 h was -11.8%.

As for `COCCOCCCNC(=O)c1cc(Cl)cc2cccnc12`, the cytotoxicity at 70.5 h is -18.1%.

Turning to `CC(CC1CC1)NCCCN1CCCN(C)CC1` (stereo unspecified), the cytotoxicity at 70.5 h amounted to 7.35%.

Take `O=S(=O)(Cc1ccccc1)NCCc1nnc2n1CCC2`: the cytotoxicity at 70.5 h is -7.99%.

`O=S(=O)(Cc1ccc(F)cc1)NCc1nnc2n1CCC2`: the cytotoxicity at 70.5 h was -24.3%.

On to `Cc1ccc(C)n1-c1c(C(=O)NCC(c2ccsc2)N(C)C)cnn1C` (stereo unspecified), for which the cytotoxicity at 70.5 h was -14.4%.

With `Cn1nnnc1SCCC(=O)NCC1Cc2ccccc2O1` (stereo unspecified), the cytotoxicity at 70.5 h is -23.7%.

For `Cc1ccc(C)n1-c1c(C(=O)NCC(C)N(C)C)cnn1C` (stereo unspecified), the cytotoxicity at 70.5 h was -0.908%.

In the case of `CCOc1cccc(CNC(=O)c2cnn(CC)c2C(F)(F)F)c1`, the cytotoxicity at 70.5 h was -2.57%.

Take `CC(=O)c1ccc(-n2c(C)cn(CCC(=O)NC(N)=O)c2=O)cc1`: the cytotoxicity at 70.5 h is -14.8%.

In the case of `CCN(Cc1ccc(F)cc1Cl)C1CCS(=O)(=O)C1` (stereo unspecified), the cytotoxicity at 70.5 h was -19.3%.

On to `COc1cc(I)c(Cl)cc1C(=O)N(C)CC(C)(C)O`, for which the cytotoxicity at 70.5 h was 21%.

With `O=C(Cn1cc(I)cn1)NCC1CCC1`, the cytotoxicity at 70.5 h was -20.2%.

On to `O=C(NCCC1CC1)NCc1cccc(-n2ccnc2)c1`, for which the cytotoxicity at 70.5 h is -2.8%.

Consider `Cc1ccc(CCCC(=O)N2CCC(CS(N)(=O)=O)CC2)s1`, for which the cytotoxicity at 70.5 h is -18.3%.

Turning to `Cc1cc(F)c(S(=O)(=O)Nc2ccn(CCCC#N)n2)cc1F`, the cytotoxicity at 70.5 h is -16%.

Turning to `Cc1cc(F)cc(S(=O)(=O)Nc2ccn(CCCC#N)n2)c1`, the cytotoxicity at 70.5 h was -9.51%.

Turning to `Cc1cncc(NC(=O)c2ccc(CN3CCC(CO)CC3)cc2)c1`, the cytotoxicity at 70.5 h is -16.3%.

On to `CCS(=O)(=O)c1ccc2c(c1)N1CCS(=O)(=O)N=C1O2`, for which the cytotoxicity at 70.5 h was -15.4%.

`NS(=O)(=O)CC1CCCN(C(=O)CCCC2CCCC2)C1` (stereo unspecified): the cytotoxicity at 70.5 h was -12.7%.

Consider `COCCCN(Cc1ccccc1Cl)C1CCS(=O)(=O)C1` (stereo unspecified), for which the cytotoxicity at 70.5 h is 25.3%.

On to `N#Cc1cccc(CN(CCO)Cc2ccsc2)c1`, for which the cytotoxicity at 70.5 h was -20.4%.

Turning to `CCOc1cc(C(=O)O)cc(-c2ccccc2)c1OC`, the cytotoxicity at 70.5 h was -1.01%.

Turning to `O=C(CNC(=O)C1CC1)NCC(F)(F)F`, the cytotoxicity at 70.5 h amounted to 1.27%.

`N#Cc1ccc(N2CCN(c3nccs3)CC2)nc1`: the cytotoxicity at 70.5 h was -0.838%.

With `N#Cc1ccc(N2CCCN(c3nccs3)CC2)nc1`, the cytotoxicity at 70.5 h was 1.75%.

In the case of `CN1CCC(CNC(=O)c2cccc(NC(N)=O)c2)c2ccccc21` (stereo unspecified), the cytotoxicity at 70.5 h is -2.27%.

Turning to `Cc1ccc(C(=O)NCC2CCN(C)c3ccccc32)c(=O)[nH]1` (stereo unspecified), the cytotoxicity at 70.5 h was -2.94%.

Regarding `CCn1c(CN2CCOC(Cn3cccn3)C2)nc2c(F)cccc21` (stereo unspecified), the cytotoxicity at 70.5 h is -3.89%.

Regarding `CCc1noc(CN(C)CCC(=O)Nc2ccccc2C#N)n1`, the cytotoxicity at 70.5 h was -1.02%.

`CC(C)Oc1ccccc1CNC(=O)c1[nH]ncc1Br`: the cytotoxicity at 70.5 h was determined as 7%.

Turning to `Cn1c(CN2CCOC(Cn3cncn3)C2)nc2ccccc21` (stereo unspecified), the cytotoxicity at 70.5 h came to 13.6%.

Regarding `CCCS(=O)(=O)NC(=O)c1ccc(Br)o1`, the cytotoxicity at 70.5 h was 1.65%.

On to `Clc1cccc(-c2noc(CCN3CCN(c4ccncc4)CC3)n2)c1`, for which the cytotoxicity at 70.5 h came out at 4%.

For `O=S(=O)(Nc1ccccn1)c1cc(Cl)cc2c1OCC2`, the cytotoxicity at 70.5 h was found to be 4.53%.

For `O=S(=O)(Nc1nccs1)c1cc(Cl)cc2c1OCC2`, the cytotoxicity at 70.5 h came to 2.51%.

With `Cc1cc(CN2CC[C@H]3OCC[C@@]3(C(=O)N3CCOCC3)C2)no1`, the cytotoxicity at 70.5 h is -5%.

With `CN(C)[C@@H]1CCN(S(C)(=O)=O)[C@H]1Cc1ccccc1`, the cytotoxicity at 70.5 h came to 1.53%.

Consider `C[C@@H]1CN(C(=O)c2ccc[nH]2)C[C@]12CCN(CCN1CCCC1)C2=O`, for which the cytotoxicity at 70.5 h was -5.21%.

For `COCCN1C(=O)CC[C@@H]2[C@@H]1CCN2Cc1c(C)noc1C`, the cytotoxicity at 70.5 h is -5.73%.

For `COCCN1CCC2(C1)c1ccccc1S(=O)(=O)N2C` (stereo unspecified), the cytotoxicity at 70.5 h is -10.1%.

Turning to `CNC(=O)COC1COC2(CCN(Cc3cccnc3)CC2)C1` (stereo unspecified), the cytotoxicity at 70.5 h is -9.98%.

Consider `O=C(c1cscn1)N1CCc2ncnc(-c3cccnc3)c2CC1`, for which the cytotoxicity at 70.5 h was 18.5%.

As to `O=C1N(Cc2ccncc2)CCC12CCCN(c1ncc(F)cn1)C2` (stereo unspecified), the cytotoxicity at 70.5 h was determined as 14.6%.

As for `CN(C)[C@@H]1CCN(S(=O)(=O)C2CC2)[C@H]1Cc1ccccc1`, the cytotoxicity at 70.5 h came to 1.77%.

In the case of `CC(C)CS(=O)(=O)N1C[C@H]2C[C@H](C(=O)N3CCN(C)CC3)[C@@H](C1)O2`, the cytotoxicity at 70.5 h is -3.23%.

Regarding `CCS(=O)(=O)N1CCOC2(CCCN(Cc3ccccn3)C2)C1` (stereo unspecified), the cytotoxicity at 70.5 h was -1.63%.

For the compound `Fc1cnc(N2CCCn3cnc(COc4cccnc4)c3C2)nc1`, the cytotoxicity at 70.5 h was -2.49%.

`CCS(=O)(=O)N1CCCn2cnc(COc3cccnc3)c2C1`: the cytotoxicity at 70.5 h was -2.04%.

As to `CCCS(=O)(=O)N1CCOC2(CCCN(Cc3ccccn3)C2)C1` (stereo unspecified), the cytotoxicity at 70.5 h is -2.44%.

As for `O=C1N(Cc2cccnc2)CCC12CCCN(c1ncccn1)C2` (stereo unspecified), the cytotoxicity at 70.5 h was 17.3%.

As to `CO[C@@H]1CCN(Cc2cccs2)[C@@H]2CN(Cc3ccncc3)C[C@@H]21`, the cytotoxicity at 70.5 h is -3.45%.

For `CO[C@H]1CCN(Cc2c(C)noc2C)[C@@H]2CN(Cc3cccnc3)C[C@H]12`, the cytotoxicity at 70.5 h is -7.23%.
